We go through one compound from US9585846B2, “Anti-microbial composition” (Wild Child, priority 2007, dated 2017).

This experiment concerns S. aureus ATCC 6538P. The experiment can be described thus: Agar plate test of cream against S. aureus (colonies recovered). Format: cell-based. Particulars: farnesol when combined with cetrimide. The protocol:
A series of plates were then prepared containing an aliquot of sample (3) prepared in accordance with the preferred formula given above. The aliquot was suspended in tryptone soy agar. 1 g of the cream was emulsified into 5 mL of saline. A 2 mL aliquot was removed and serially diluted using saline. 6 mL of tryptone soy broth was then added to the suspensions. They were then added to 10 ml, of molten double strength tryptone soy agar and plate poured. Once cooled the plates were inoculated with 94 cfu of S. aureus ATCC 6538P. The plates were then incubated at 32° C. for 5 days. Following the incubation the number of colonies of S. aureus isolated was then determined.

In the case of `CC(C)=CCCC(C)=CCCC(C)=CCO` [farnesol], the “Antimicrobial effect of the combination” value is “synergistic antimicrobial effects”.
